The record followed here is patent US7163923B2, “Peptide deformylase activated prodrugs” (Celmed Oncology (USA), Inc., priority 2001, dated 2007).

Converted amounts (≈) assume the structure as drawn.

The nature of data set [1]: Stability in mouse plasma. It counts as in vitro ADME. Here is the method:
(§1) Stability of PDF ECTA compounds was determined in different media: PBS, pH 7.4 (Gibco Life Technologies), 50 mM HEPES buffer (Sigma), pH 7.5, Mueller Hinton broth (Becton Dickinson), mouse and human plasma (Sigma). Dependence of a compound concentration on time was fit to an exponential equation c=co×exp(−k×t)} where c is the running concentration of the compound, co is its initial concentration and t is time. The compound half-life was determined as t1/2=0.693/k.

Data set [2] in a line: Stability in human plasma. It counts as in vitro ADME. Here is the method: as §1
Data set [3] in a line: Stability in PBS, HEPES buffer and Mueller Hinton broth. The class given is physicochemical. The procedure: as §1
The subject of data set [4] is P. aeruginosa. Briefly: MIC susceptibility testing (NCCLS, 96-well). It counts as cell-based. The following applies: P. aeruginosa ATCC 27853, 18 hours at 35° C. The procedure: (§2) The NCCLS (National Committee for Clinical Laboratory Standards) method was used to determine MIC's of antimicrobial compounds. All stocks of tested compounds were prepared in either water or DMSO based on the solubility. At the highest concentration of the tested compound DMSO content should not exceed 0.5%. Briefly 2-fold serial dilutions of test compounds from the highest concentration were made in a 96-well microtiter plate. Each well was inoculated with testing bacteria in broth to a final concentration of approximately 5×10^5 CFU/ml. Bacterial growth was monitored by the increase of optical density at 600 nm using a microplate reader (Tecan SpectraFluor Plus). The MIC was defined as the lowest concentration at which bacteria growth (equivalent to visible growth) was inhibited after 18 hours of incubation at 35° C.

The subject of data set [5] is S. aureus. Briefly: MIC susceptibility testing (NCCLS, 96-well). The class given is cell-based. The procedure: as §2
Data set [6] has as its system E. coli. Briefly: MIC susceptibility testing (NCCLS, 96-well). The note with it: E. coli ATCC 25922, 18 hours at 35° C. The class given is cell-based. Here is the method:
as §2

Data set [7] concerns E. faecalis. Briefly: MIC susceptibility testing (NCCLS, 96-well). It counts as cell-based. The following applies: E. faecalis ATCC 29212, 18 hours at 35° C. Here is the method:
as §2

Data set [8] relates to S. aureus. The data set is described as follows: MIC susceptibility testing (modified NCCLS, 384-well). The following applies: Staphylococcus aureus. It counts as cell-based. Here is the method: The NCCLS (National Committee for Clinical Laboratory Standards), method to determine MIC's of antimicrobial compounds is modified for high-throughput screening. All stocks of tested compounds are prepared in either water or in DMSO depending on solubility. At the highest concentration, DMSO content should not exceed 0.5%. Briefly, twenty 2-fold serial dilutions of test compounds from the highest concentration are made in a 384-well microtiter plate. Each well is inoculated with testing bacteria in broth to a final concentration of approximately 1–1.5×10^6 cells/ml. Bacterial growth is determined by the increase of optical density at 600 nm using a microplate reader (Tecan SpectraFluor Plus). The MIC is defined as the lowest concentration at which bacterial growth (equivalent to visible growth) was inhibited after 16 to 18 hours of incubation at the appropriate temperature required for the bacteria growth.
Using the assay provided above, the potency of NB2046 was compared to triclosan.

The target of data set [9] is T1, purified PDF (Escherichia coli, UniProt P0A6K3).
T1 construct: made in house; host or cells: PDF-overexpressing E. coli
T1 sequence (P0A6K3 1-169): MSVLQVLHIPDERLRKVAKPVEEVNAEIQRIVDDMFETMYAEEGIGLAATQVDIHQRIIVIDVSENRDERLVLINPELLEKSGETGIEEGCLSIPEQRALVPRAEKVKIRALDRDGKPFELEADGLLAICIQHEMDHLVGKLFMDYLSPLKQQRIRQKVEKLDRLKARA
Briefly: Cell-free reaction catalyzed by purified PDF (HPLC, Michaelis-Menten). The note with it: different concentrations of actinonin, FIG. 5. It counts as biochemical, E. coli. Here is the method: (§3) In a seperate experiment, cell-free reaction of PDF ECTA compounds has been studied using PDF purified from PDF-overexpressing E. coli following a procedure described in Ragusa S., et al. (2000) and Wei, et al. (2000b). NB3068 conversion was used as an example of a PDF ECTA reaction catalyzed by purified PDF. It was carried out in 50 mM HEPES buffer, pH 7.5 at room temperature. NB3068 concentrations were in the range of 2–250 μM, and the concentration of the enzyme in the reaction mixture was 25 nM. The conversion was monitored by direct injection of the reaction mixture onto an HPLC column (Adsorbosphere HS, C18, 5 μm, 4.6 mm×150 mm, Alltech). […] Kinetic parameters of the reaction were determined fitting the data to the Michaelis-Menten equation.
(§4) To confirm the role of PDF in catalyzing NB3068 transformation the rate of the reaction at different enzyme concentrations was determined (FIGS. 3 and 4). As can been seen the rate of the reaction is proportional to the enzyme concentration.

Substrate in data set [10]: CCn1cc(C(=O)O)c(=O)c2cc(F)c(N3CCN(C(=O)OCc4ccc(OC(=O)[C@H](CC(C)C)NC(=O)[C@H](CCSC)NC=O)cc4)CC3)cc21
Described as above. It counts as biochemical, E. coli. The following applies: other: PDF 25 nM, 50 mM HEPES pH 7.5, room temperature, substrate 2–250 μM. Here is the method: as §3, §4

Where [11] appears, read: S. aureus (MS) ATCC 29213, 18 hours at 35° C.
[12] abbreviates: 50 mM HEPES buffer, pH 7.5, 6 hours.
Setting [13] is: 50 mM HEPES buffer, pH 7.5, read-out: t1/2 HEPES.
Where [14] appears, read: Mueller Hinton broth, read-out: t1/2 Broth.
[15] abbreviates: PBS, pH 7.4, read-out: t1/2 PBS.

For the molecule “1-Cyclopropyl-6-fluoro-4-oxo-7-piperazin-1-yl-1,4-dihydro-quinoline-3-carboxylic acid 4-[2-(2-formylamino-4-methylsulfanyl-butyrylamino)-4-methyl-pentanoyloxy]-benzylester [NB3057]”, the “t1/2 Mouse Plasma” value in [1] is 1.4 min. Also, the “t1/2 Human Plasma” value in data set [2] is less than 30 s. The “t1/2 Broth” value in data set [3] (buffer) was 10 h. Besides, the “percent of the compound remaining after 6 hours, PBS” value in [3] (buffer, 6 h, pH 7.4) is on record as “(82%)”. Besides, in data set [3] (buffer, pH 7.4), the “t1/2 PBS” value is greater than 12 h. The “t1/2 HEPES” value in data set [3] (buffer, pH 7.5) was greater than 12 h. For the same molecule, the MIC was determined as 2 µg/mL in [4]; 0.5 µg/mL in data set [5] (S. aureus (MR) ATCC 33591, 18 hours at 35° C.); 0.125 µg/mL in data set [5] (setting [11]); 0.0625 µg/mL in [6]; 4 µg/mL in [7].

As to `CSCC[C@H](NC=O)C(=O)N[C@@H](CC(C)C)C(=O)Oc1ccc(CSc2cccc[n+]2[O-])cc1` [NB3024], in data set [3] (setting [12]), the “percent of the compound remaining after 6 hours, HEPES” value was “(88%)”. The half-life in data set [3] (setting [13]), in data set [3] (setting [14]) and in data set [3] (setting [15]) was greater than 12 h in each case. Moreover, the “percent of the compound remaining after 6 hours, Broth” value in data set [3] (Mueller Hinton broth, 6 hours) is reported as “(82%)”. The “percent of the compound remaining after 6 hours, PBS” value in [3] (PBS, pH 7.4, 6 hours) is on record as “(81%)”. Further, the MIC in [4] amounted to 128 µg/mL (≈ 253 µM); in data set [5] (setting [11]), 8 µg/mL (≈ 15.8 µM); in [6], 16 µg/mL (≈ 31.6 µM); in [7] it was 32 µg/mL (≈ 63.3 µM).

In the case of `CCn1cc(C(=O)O)c(=O)c2cc(F)c(N3CCN(C(=O)OCc4ccc(OC(=O)[C@H](CC(C)C)NC(=O)[C@H](CCSC)NC=O)cc4)CC3)cc21` [NB3068, 1-Ethyl-6-fluoro-7-(4-{4-[2-(2-formylamino-4-methylsulfanyl-butyrylamino)-4-methyl-pentanoyloxy]-benzyloxycarbonyl}-piperazin-1yl)-4-oxo-1,4-dihydro-qiuinoline-3-carboxylic acid], the half-life was 36 s in data set [1] (read-out: t1/2 Mouse Plasma); 4.1 min in [2] (read-out: t1/2 Human Plasma); greater than 12 h in data set [3] (setting [13]); greater than 12 h in data set [3] (setting [14]); greater than 12 h in data set [3] (setting [15]). Further, the “percent of the compound remaining after 6 hours, HEPES” value in data set [3] (setting [12]) was “(70%)”. In addition, the “percent of the compound remaining after 6 hours, Broth” value in data set [3] (Mueller Hinton broth, 6 hours) is recorded as “(70%)”. Moreover, in [3] (PBS, pH 7.4, 6 hours), the “percent of the compound remaining after 6 hours, PBS” value is recorded as “(75%)”. Also, the MIC is 0.5 µg/mL (≈ 0.674 µM) in data set [4], 2 µg/mL (≈ 2.7 µM) in data set [5] (setting [11]), less than 0.004 µg/mL in data set [6] and 2 µg/mL (≈ 2.7 µM) in data set [7].

On to `CSCC[C@H](NC=O)C(=O)N[C@@H](CC(C)C)C(=O)Oc1ccc(COC(=O)N(CCCl)CCCl)cc1` [NB3103, 2-(2-Formylamino-4-methylsulfanyl-butyrylamino)-4-methyl-pentanoic acid 4-{[bis-(2-chloro-ethyl)-carbamoyloxy]-methyl}-phenyl ester], for which the “percent of the compound remaining after 6 hours, HEPES” value in data set [3] (setting [12]) is given as “(95%)”. In addition, the half-life in data set [3] (setting [13]) was greater than 12 h; in data set [3] (buffer, Mueller Hinton broth, read-out: t1/2 Broth), greater than 12 h; in data set [3] (buffer, PBS, pH 7.4, read-out: t1/2 PBS), greater than 12 h. For the same molecule, the “percent of the compound remaining after 6 hours, Broth” value in data set [3] (Mueller Hinton broth, 6 hours) was “(95%)”. Besides, in data set [3] (PBS, pH 7.4, 6 hours), the “percent of the compound remaining after 6 hours, PBS” value was “(96%)”. Also, the MIC in data set [4], in [5] (setting [11]), in data set [6] and in data set [7] was greater than 128 µg/mL throughout.

For the molecule `Oc1cc(Cl)ccc1Oc1ccc(Cl)cc1Cl` [Triclosan, reference compound], the MIC was found to be 0.00195 µg/mL (≈ 0.00675 µM) in [8] (ATCC 11632 / MSSA); 0.000488 µg/mL (≈ 0.00169 µM) in data set [8] (ATCC 13301 / MSSA); 0.00195 µg/mL (≈ 0.00675 µM) in [8] (ATCC 14154 / MSSA); 0.00781 µg/mL (≈ 0.027 µM) in data set [8] (ATCC 33591 / MSSA); 0.00391 µg/mL (≈ 0.0135 µM) in [8] (ATCC 33592 / MSSA); 0.000977 µg/mL (≈ 0.00337 µM) in data set [8] (ATCC 33593 / MSSA). The MIC in [8] (ATCC 43300 / MSSA) is 0.00195 µg/mL (≈ 0.00675 µM); in data set [8] (ATCC 700260 / MSSA), 0.000244 µg/mL (≈ 0.000843 µM); in data set [8] (ATCC 700698 / MSSA) it was 0.00391 µg/mL (≈ 0.0135 µM); in [8] (ATCC 700699 / MSSA) it was no less than 4 µg/mL; in data set [8] (ATCC 700787 / MSSA), 0.00195 µg/mL (≈ 0.00675 µM); in data set [8] (ATCC 700788 / MSSA) it was 0.0312 µg/mL (≈ 0.108 µM). The molecule further came in with an MIC in data set [8] (ATCC 700789 / MSSA) of 0.0156 µg/mL (≈ 0.054 µM).

As for `CCCCC[C@H](CC(=O)NO)C(=O)N[C@H](C(=O)N1CCC[C@H]1CO)C(C)C` [actinonin], the “Effect on NB3068 reaction catalyzed by purified PDF” value in data set [9] is on record as “slows down the reaction in dose dependent manner”.

B1: purified PDF (Escherichia coli K-12) (protein)
chain: MSVLQVLHIPDERLRKVAKPVEEVNAEIQRIVDDMFETMYAEEGIGLAATQVDIHQRIIVIDVSENRDERLVLINPELLEKSGETGIEEGCLSIPEQRALVPRAEKVKIRALDRDGKPFELEADGLLAICIQHEMDHLVGKLFMDYLSPLKQQRIRQKVEKLDRLKARA
notes: made in house; host or cells: PDF-overexpressing E. coli
As for B1, in data set [10], the Km was 125 ± 17 µM, the kcat was determined as 2.07 ± 0.14 s⁻¹ and the kcat/Km came out at 17000 M⁻¹ s⁻¹.
